Reference: ChEMBL document CHEMBL5465560, “Selectivity Literature for EUbOPEN Chemogenomic Library” (2024)

Assays:
[1] = target: T1, Mitogen-activated protein kinase kinase kinase 5 (Homo sapiens) (UniProt Q99683); experiment: Selectivity interaction (KinomeScan (DiscoverX)) EUB0000666a MAP3K5; details: at 10 µM
T1 sequence (whole entry): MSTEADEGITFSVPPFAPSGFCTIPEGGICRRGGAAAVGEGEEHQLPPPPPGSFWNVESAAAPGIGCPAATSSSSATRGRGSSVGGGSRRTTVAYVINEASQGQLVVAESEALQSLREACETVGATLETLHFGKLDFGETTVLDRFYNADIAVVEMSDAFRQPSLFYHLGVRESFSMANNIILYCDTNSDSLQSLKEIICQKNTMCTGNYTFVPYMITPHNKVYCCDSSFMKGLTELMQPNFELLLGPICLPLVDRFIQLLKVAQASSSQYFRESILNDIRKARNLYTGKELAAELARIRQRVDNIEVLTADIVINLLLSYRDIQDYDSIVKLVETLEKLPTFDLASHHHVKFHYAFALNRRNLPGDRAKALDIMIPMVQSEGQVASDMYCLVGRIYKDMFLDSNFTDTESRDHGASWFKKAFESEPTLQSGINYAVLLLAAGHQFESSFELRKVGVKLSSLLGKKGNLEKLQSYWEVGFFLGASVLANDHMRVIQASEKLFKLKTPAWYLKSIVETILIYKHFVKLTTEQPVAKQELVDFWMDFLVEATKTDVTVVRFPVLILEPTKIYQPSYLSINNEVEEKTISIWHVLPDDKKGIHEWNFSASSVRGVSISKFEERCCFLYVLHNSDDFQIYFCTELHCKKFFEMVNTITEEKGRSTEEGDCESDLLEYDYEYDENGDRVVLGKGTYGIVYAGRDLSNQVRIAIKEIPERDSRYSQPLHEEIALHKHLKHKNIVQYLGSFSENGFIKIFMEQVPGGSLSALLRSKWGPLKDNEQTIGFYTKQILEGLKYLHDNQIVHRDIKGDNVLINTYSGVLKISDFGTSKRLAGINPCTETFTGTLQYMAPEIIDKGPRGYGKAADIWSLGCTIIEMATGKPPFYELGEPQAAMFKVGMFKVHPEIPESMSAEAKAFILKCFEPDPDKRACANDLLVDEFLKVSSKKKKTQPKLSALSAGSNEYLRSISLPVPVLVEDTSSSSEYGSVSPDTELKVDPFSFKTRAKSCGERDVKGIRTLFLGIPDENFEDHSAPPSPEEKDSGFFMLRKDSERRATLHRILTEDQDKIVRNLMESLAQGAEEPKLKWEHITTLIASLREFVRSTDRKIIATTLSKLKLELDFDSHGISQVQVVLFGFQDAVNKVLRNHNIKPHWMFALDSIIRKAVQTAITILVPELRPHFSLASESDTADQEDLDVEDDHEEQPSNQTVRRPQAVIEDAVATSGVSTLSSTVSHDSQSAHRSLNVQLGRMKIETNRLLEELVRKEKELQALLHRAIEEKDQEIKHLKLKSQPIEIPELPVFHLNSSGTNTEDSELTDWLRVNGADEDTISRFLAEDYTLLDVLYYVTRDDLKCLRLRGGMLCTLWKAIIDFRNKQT

[2] = target: T2, cGMP-dependent protein kinase 1 (Homo sapiens) (UniProt Q13976); experiment: Selectivity interaction (KinomeScan (DiscoverX)) EUB0001079a PRKG1; details: at 1 µM
T2 sequence (whole entry): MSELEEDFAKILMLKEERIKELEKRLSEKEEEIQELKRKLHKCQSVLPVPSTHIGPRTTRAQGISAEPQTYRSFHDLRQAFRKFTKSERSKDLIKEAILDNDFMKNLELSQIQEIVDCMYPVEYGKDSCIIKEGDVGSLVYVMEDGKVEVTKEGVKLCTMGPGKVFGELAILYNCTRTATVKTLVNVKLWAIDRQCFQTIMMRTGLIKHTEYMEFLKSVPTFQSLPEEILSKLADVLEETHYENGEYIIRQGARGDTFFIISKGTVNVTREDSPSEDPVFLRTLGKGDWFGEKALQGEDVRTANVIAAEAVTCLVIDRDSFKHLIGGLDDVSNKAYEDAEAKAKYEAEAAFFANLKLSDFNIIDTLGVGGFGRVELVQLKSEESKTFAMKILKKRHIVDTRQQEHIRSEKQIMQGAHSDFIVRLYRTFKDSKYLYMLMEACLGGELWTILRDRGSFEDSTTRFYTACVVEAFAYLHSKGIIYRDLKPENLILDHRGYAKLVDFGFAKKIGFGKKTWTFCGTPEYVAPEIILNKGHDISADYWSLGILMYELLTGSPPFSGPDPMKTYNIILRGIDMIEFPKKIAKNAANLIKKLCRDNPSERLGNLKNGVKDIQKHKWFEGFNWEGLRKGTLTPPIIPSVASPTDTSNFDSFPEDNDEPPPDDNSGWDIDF

[3] = target: T3, Activin receptor type-1 (Homo sapiens) (UniProt Q04771); details: at 10 µM
T3 sequence (whole entry): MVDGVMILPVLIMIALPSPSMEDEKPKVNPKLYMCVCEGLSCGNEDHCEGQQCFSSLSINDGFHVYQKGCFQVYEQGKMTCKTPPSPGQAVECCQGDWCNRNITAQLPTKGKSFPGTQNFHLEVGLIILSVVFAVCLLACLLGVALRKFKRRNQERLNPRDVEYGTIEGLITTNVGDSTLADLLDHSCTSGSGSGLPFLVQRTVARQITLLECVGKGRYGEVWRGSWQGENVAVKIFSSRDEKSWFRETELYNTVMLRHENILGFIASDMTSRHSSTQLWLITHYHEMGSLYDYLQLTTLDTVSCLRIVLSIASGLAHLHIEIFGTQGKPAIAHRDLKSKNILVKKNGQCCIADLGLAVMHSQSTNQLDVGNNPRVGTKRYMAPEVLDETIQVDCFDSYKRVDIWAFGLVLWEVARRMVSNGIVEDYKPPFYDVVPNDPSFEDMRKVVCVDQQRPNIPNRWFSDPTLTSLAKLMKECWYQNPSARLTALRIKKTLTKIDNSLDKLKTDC

[4] = target: Myosin light chain kinase, smooth muscle (Homo sapiens, UniProt Q15746); details: at 10 µM
Myosin light chain kinase, smooth muscle, sequence (Q15746 whole entry): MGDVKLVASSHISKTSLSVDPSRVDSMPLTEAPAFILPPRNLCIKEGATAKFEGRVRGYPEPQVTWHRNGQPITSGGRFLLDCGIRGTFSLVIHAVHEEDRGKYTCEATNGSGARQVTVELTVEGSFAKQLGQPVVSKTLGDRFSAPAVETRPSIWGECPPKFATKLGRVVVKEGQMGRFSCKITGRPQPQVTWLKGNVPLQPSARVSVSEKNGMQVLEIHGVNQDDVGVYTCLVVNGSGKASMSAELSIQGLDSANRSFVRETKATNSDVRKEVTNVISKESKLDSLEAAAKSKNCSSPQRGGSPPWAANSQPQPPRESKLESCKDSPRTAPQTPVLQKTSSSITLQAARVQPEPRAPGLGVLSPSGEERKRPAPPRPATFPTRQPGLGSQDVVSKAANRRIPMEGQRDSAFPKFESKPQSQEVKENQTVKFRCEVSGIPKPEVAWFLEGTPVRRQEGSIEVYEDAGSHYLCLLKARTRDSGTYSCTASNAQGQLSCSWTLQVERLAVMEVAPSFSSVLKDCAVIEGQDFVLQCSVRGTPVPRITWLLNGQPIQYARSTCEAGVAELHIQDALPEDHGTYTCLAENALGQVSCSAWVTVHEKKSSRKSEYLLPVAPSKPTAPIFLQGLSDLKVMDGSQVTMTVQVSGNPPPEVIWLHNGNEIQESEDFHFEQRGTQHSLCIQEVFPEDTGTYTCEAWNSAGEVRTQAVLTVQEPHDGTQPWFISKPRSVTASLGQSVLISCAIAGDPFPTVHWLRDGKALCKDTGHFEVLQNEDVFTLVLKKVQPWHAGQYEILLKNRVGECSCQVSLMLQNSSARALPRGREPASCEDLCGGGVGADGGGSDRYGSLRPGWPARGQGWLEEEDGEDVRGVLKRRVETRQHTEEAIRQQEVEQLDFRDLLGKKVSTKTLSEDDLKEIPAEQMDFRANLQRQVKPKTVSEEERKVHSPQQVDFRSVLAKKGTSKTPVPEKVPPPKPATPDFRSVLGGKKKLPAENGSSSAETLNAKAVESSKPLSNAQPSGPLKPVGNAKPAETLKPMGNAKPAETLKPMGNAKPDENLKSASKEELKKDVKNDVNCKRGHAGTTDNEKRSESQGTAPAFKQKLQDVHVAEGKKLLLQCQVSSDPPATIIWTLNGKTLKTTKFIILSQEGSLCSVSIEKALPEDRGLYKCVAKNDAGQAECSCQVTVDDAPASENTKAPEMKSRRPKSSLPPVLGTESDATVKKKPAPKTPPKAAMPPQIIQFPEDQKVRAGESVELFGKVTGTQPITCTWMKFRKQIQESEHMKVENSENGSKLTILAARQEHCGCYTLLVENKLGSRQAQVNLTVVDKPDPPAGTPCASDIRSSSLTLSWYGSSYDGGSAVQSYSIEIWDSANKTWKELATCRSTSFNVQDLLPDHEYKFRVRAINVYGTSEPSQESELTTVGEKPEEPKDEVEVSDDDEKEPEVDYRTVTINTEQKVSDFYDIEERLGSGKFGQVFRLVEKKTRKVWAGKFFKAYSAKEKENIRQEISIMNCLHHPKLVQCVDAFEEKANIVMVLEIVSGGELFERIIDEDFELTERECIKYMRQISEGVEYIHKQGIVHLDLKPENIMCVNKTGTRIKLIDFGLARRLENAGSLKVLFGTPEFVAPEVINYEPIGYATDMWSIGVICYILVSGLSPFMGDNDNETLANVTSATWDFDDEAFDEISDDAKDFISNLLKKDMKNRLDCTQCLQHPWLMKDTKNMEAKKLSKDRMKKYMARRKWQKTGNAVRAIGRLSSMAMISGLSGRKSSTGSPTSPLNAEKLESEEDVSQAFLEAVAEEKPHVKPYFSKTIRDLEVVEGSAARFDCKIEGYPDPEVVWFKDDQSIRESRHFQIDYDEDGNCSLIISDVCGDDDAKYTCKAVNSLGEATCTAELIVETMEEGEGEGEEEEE

[5] = target: T1, Mitogen-activated protein kinase kinase kinase 5 (Homo sapiens); experiment: Selectivity interaction (ActivX KiNativ screen (kinase selectivity in THP-1 cell lysates)) EUB0000639a MAP3K5; type: subcellular; details: lysate, at 5 µM
[6] = target: Tyrosine-protein kinase BTK (Homo sapiens, UniProt Q06187); experiment: Selectivity interaction (KinomeScan (DiscoverX)) EUB0000595a BTK; details: at 10 µM
Tyrosine-protein kinase BTK, sequence (Q06187 whole entry): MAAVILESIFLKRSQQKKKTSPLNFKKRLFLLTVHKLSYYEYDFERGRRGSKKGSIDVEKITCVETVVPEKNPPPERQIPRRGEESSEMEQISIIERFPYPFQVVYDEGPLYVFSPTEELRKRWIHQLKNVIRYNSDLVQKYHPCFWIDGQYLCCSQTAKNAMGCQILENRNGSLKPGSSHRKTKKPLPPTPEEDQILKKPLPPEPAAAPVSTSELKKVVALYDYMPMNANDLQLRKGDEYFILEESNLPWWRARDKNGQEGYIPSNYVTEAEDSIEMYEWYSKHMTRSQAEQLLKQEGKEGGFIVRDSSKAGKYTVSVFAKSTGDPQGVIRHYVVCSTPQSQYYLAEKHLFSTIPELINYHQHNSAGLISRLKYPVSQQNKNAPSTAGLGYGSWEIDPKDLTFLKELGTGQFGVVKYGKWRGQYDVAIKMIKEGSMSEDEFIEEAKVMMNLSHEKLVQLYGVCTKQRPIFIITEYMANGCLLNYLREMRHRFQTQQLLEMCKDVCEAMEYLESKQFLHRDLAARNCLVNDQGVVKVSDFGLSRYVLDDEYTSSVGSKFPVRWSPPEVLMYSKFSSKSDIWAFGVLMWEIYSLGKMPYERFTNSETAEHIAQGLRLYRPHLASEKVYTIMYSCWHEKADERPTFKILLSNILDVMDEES

[7] = system: Hepatocyte growth factor receptor (Homo sapiens), P08581 [Y1235D]; details: at 10 µM
Hepatocyte growth factor receptor (Homo sapiens), P08581 [Y1235D], sequence (P08581 whole entry Y1235D): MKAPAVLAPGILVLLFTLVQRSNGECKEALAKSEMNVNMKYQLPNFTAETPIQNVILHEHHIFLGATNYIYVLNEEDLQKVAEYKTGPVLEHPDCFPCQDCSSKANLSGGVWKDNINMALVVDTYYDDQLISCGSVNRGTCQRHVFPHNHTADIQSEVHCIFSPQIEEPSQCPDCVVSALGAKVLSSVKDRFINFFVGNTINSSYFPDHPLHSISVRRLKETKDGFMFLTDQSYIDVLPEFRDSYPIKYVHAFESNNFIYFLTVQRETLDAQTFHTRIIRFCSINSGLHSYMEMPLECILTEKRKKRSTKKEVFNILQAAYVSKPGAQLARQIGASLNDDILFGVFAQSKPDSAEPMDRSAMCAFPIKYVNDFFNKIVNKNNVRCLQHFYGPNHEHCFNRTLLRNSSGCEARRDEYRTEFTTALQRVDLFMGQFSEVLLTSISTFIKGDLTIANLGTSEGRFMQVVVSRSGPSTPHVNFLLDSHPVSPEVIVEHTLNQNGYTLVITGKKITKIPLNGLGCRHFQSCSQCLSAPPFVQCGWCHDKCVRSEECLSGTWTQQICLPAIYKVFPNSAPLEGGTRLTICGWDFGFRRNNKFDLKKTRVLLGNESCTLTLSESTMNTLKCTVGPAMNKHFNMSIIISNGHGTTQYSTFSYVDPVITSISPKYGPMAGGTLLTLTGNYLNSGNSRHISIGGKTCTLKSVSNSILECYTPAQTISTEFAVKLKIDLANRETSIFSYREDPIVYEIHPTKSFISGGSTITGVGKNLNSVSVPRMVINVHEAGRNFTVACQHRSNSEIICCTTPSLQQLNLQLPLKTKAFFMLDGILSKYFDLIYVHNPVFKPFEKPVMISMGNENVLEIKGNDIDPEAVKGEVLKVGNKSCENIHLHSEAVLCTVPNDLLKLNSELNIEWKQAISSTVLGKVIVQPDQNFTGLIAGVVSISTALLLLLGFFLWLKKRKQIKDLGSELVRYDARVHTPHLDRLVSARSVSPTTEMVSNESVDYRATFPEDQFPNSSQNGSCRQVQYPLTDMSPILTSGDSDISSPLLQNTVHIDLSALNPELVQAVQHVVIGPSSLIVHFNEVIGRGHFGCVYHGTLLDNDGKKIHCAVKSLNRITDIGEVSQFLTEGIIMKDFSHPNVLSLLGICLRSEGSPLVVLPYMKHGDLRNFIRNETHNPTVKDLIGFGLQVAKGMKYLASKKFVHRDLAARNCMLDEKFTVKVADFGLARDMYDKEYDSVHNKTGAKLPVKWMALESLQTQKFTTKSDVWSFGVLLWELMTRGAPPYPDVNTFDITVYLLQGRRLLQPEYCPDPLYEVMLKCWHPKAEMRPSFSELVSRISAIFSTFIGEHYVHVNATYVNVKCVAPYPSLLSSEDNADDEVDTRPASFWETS

[8] = target: G protein-coupled receptor kinase 5 (Homo sapiens, UniProt P34947); experiment: Selectivity interaction (Upstate Kinase Profiler service (Millipore)) EUB0000056c GRK5; details: at 1 µM
[9] = target: Wee1-like protein kinase 2 (Homo sapiens) (UniProt P0C1S8); experiment: Selectivity interaction (KinomeScan (DiscoverX)) EUB0000607a WEE2; details: at 10 µM
Wee1-like protein kinase 2 (Homo sapiens), sequence (P0C1S8 whole entry, looked up): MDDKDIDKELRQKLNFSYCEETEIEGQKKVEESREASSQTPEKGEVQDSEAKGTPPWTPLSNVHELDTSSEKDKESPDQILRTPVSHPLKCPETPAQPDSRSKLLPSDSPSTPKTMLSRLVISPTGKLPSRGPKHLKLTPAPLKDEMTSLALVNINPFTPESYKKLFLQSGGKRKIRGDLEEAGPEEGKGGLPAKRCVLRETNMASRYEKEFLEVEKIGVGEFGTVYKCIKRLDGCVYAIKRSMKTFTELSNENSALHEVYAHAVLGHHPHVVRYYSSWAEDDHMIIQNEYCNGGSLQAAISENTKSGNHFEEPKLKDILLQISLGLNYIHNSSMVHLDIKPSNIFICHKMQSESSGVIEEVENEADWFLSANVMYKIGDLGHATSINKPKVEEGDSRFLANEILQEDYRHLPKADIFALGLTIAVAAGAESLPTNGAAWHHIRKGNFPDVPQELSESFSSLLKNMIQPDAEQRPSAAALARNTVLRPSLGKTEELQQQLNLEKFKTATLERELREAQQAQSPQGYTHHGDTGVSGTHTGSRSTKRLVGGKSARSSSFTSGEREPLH

[10] = target: Serine/threonine-protein kinase PAK 3 (Homo sapiens) (UniProt O75914); experiment: Selectivity interaction (Kinase panel (Z-LYTE Assay)) EUB0001632a PAK3; details: at 10 µM
Serine/threonine-protein kinase PAK 3 (Homo sapiens), sequence (O75914 whole entry, looked up): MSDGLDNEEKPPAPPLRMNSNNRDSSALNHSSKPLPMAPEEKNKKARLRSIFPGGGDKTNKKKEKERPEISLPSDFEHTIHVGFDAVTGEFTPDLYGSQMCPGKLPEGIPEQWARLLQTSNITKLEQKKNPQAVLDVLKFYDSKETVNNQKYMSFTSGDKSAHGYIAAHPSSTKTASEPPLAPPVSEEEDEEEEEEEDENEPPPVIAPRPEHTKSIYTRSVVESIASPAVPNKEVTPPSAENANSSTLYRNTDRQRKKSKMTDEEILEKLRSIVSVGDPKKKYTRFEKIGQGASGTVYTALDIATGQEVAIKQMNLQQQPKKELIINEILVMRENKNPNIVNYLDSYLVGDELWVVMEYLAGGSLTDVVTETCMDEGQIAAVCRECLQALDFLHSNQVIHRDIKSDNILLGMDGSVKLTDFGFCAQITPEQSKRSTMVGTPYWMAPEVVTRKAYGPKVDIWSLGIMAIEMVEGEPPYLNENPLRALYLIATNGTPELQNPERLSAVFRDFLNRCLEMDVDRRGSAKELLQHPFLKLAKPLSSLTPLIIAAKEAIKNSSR

In the case of `O=C(NOC[C@H](O)CO)c1ccc(F)c(F)c1Nc1ccc(I)cc1F`, the % of control [1] is reported as 91%.

`Nc1cnc(N2CCc3cc(S(=O)(=O)Nc4c(F)cc(Cl)cc4F)cc(N4CCCC4=O)c32)nc1` [TP-020n] gave a % of control [2] of 97%.

`CCN(CC)CCCCNc1ncc2cc(-c3cc(OC)cc(OC)c3)c(NC(=O)NC(C)(C)C)nc2n1` was tested, and the % of control [3] was 100% and the % of control [4] was 100%.

In the case of `CC[C@@H]1[C@H](F)C(=O)N[C@@H]1COc1nccc2cc(C(N)=O)c(OC)cc12` [ZIMLOVISERTIB], the % of inhibition [5] is reported as -16.2%.

`COCC(=O)NC/C=C/c1ccc2ncnc(Nc3ccc(Oc4ccc(C)nc4)c(C)c3)c2c1` [CP-724714] gave a % of control [6] of 68% and a % of control [7] of 81%.

`Cc1ccc(-c2ccc3c(ccc4sc5c(c43)NC[C@@H](C)NC5=O)n2)cn1` showed a % of inhibition [8] of -23%.

For `CNC(=O)Nc1ccc(-c2nc(N3CC4CCC(C3)O4)c3cnn(C4CCC5(CC4)OCCO5)c3n2)cc1`, the % of control [9] was 100%.

For `Cn1cc(-n2cnc3c(NCc4nc5cc(Cl)c(Cl)cc5[nH]4)nc(N4CCOCC4)nc32)cn1`, the % of control [10] was -20.7%.
